{"source": "patent US9452986B2", "about": "“6-heteroaryloxy- or 6-aryloxy-quinoline-2-carboxamides and method of use” (AbbVie Inc., priority 2014, dated 2016)", "key": {"recombinant human Nav1.7": {"target": "recombinant human Nav1.7 (Homo sapiens (Human), UniProt Q15858)", "sequence (Q15858 whole entry)": "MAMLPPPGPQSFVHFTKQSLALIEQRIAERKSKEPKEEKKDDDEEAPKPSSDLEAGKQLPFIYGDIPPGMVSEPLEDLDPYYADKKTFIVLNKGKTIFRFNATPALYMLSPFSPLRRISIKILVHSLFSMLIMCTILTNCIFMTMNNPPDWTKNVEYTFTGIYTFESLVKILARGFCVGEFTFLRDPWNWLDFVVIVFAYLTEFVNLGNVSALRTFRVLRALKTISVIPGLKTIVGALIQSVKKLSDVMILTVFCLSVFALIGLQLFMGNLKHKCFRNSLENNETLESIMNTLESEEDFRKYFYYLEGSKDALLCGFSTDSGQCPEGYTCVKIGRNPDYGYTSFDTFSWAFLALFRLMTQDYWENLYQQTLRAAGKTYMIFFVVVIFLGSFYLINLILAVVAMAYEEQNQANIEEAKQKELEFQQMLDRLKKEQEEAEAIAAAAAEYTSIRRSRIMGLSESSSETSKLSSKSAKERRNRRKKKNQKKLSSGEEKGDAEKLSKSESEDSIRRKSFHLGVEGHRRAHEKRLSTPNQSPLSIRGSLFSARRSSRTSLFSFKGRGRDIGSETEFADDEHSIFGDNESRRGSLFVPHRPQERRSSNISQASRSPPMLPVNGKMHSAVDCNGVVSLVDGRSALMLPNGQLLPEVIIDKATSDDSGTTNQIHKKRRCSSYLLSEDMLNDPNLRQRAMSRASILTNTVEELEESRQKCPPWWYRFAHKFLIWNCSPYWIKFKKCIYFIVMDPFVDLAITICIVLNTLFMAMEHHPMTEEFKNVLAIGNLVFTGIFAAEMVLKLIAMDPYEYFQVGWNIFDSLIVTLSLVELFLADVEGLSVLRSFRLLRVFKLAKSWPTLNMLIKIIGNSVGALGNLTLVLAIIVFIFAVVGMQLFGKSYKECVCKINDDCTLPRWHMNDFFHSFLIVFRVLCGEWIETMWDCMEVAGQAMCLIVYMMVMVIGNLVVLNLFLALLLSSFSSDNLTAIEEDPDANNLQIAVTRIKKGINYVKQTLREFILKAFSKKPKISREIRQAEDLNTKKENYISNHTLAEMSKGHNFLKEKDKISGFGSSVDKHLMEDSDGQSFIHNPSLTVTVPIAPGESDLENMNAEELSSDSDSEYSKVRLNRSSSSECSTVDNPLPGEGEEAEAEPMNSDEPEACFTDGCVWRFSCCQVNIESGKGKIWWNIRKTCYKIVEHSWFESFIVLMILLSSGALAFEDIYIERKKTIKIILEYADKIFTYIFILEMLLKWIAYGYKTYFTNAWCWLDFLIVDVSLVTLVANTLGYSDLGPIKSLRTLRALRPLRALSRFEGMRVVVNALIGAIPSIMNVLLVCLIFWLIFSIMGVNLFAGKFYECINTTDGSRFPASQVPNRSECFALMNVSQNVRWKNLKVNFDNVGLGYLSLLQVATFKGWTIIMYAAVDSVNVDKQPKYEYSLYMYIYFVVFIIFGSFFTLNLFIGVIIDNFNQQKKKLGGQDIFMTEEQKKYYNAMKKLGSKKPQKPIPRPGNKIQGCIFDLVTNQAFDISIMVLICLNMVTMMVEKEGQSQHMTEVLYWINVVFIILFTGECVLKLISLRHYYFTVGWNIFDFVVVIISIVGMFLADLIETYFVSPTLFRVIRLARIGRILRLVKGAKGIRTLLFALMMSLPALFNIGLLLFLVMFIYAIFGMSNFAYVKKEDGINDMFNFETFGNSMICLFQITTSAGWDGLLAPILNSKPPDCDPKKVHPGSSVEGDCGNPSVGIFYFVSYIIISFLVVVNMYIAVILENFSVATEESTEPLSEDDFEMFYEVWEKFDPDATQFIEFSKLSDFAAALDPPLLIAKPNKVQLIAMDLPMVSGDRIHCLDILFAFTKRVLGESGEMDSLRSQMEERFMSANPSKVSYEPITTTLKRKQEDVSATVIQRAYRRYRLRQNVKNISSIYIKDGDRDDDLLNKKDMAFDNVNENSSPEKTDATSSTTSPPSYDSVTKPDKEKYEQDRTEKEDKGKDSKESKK", "test": "FRET-based membrane potential assay, recombinant human sodium channel Nav1.7", "format": "cell-based", "how_it_was_run": "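Channel activation used veratridine at its EC80, set by a dilution curve each experiment, together with Leiurus scorpion venom, added 3 min after compound. Membrane-potential ratio signals from FLIPR Tetra in HEPES-buffered HBSS were fitted to a four-parameter Hill equation for percent inhibition and IC50.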"}, "recombinant human Nav1.8": {"target": "recombinant human Nav1.8 (Homo sapiens (Human), UniProt Q9Y5Y9)", "sequence (Q9Y5Y9 whole entry)": "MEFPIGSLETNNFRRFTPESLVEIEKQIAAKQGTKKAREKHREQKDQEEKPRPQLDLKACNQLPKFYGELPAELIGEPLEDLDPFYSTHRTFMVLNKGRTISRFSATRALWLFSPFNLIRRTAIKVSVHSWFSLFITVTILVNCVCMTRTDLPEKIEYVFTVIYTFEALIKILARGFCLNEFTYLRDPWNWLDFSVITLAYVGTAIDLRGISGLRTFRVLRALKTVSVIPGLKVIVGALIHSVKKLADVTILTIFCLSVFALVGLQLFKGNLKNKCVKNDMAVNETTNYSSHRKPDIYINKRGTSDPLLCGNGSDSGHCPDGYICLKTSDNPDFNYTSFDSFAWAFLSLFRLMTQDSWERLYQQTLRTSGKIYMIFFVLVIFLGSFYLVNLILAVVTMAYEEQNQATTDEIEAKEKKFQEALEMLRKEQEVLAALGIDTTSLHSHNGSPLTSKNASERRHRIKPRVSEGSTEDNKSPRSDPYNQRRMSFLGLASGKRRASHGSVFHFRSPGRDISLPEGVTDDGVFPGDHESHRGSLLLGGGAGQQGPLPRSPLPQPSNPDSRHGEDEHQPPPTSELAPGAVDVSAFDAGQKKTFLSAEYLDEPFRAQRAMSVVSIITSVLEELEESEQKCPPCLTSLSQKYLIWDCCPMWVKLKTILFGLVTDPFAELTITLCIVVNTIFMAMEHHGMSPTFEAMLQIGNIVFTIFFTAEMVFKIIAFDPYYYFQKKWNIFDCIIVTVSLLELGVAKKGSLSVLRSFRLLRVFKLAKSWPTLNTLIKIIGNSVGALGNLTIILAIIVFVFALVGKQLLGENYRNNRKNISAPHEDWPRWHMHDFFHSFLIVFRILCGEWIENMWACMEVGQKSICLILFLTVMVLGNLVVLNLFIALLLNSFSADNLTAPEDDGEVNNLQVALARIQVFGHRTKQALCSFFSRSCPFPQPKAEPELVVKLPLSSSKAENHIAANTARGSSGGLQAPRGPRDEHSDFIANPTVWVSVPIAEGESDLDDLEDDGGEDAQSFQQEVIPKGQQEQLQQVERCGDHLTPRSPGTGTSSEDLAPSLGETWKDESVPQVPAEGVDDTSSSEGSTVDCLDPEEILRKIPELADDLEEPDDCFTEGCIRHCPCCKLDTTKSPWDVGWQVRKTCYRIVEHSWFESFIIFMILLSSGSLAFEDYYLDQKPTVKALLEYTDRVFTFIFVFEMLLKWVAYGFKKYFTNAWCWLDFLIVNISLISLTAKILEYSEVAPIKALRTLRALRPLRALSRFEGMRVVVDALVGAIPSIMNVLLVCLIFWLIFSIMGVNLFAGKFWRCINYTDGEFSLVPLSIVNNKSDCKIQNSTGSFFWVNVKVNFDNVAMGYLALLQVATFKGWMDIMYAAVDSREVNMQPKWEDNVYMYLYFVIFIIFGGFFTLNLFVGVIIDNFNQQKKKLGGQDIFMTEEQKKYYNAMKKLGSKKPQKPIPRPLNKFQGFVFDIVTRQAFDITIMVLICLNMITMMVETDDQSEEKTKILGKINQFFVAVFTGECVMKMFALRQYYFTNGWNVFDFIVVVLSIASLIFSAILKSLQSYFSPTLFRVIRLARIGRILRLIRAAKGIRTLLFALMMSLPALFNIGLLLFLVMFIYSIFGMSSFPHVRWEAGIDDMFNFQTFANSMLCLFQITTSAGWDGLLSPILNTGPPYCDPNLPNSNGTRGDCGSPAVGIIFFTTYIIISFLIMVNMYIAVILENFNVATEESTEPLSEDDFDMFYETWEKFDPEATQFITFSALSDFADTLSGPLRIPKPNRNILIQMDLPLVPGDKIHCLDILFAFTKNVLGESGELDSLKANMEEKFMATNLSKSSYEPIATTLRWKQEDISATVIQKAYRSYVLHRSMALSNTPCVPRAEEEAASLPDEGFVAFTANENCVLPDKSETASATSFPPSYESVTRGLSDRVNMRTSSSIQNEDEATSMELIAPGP", "test": "FRET-based membrane potential assay, recombinant human sodium channel Nav1.8", "format": "cell-based"}, "osteoarthritic rats": {"tested_on": "osteoarthritic rats", "test": "Osteoarthritic (OA) pain induced by sodium monoiodoacetate (MIA), hind limb grip force", "format": "in vivo, rat", "settings": "rat, 20 days following MIA injection, hind limb grip force; for inhibition in vivo at 10 mg/kg / inhibition in vivo at 30 mg/kg: Rattus norvegicus, 480 h, read-out: OA MPE; for inhibition in vivo at 30 mg/kg: OA dose 30 mg/kg", "procedure": "Osteoarthritic (OA) Pain Induced by Sodium Monoiodoacetate (MIA)\nPain behavior was assessed by measurement of hind limb grip force (GF) in adult osteoarthritic rats. Male Sprague Dawley rats, obtained from Charles River Laboratories, (Wilmington, Mass.), weighing 150-175 g, were injected in the unilateral knee join with a single intra-articular injection of sodium monoiodoacetate (MIA, 3 mg/rat). All rats were tested at 20 days following MIA injection. A behavioral measure of activity-induced pain was carried out. Measurements of the peak hind limb grip force were conducted by recording the maximum compressive force (CFmax), in grams of force, exerted on a hind limb strain gauge setup, in a commercially available grip force measurement system (Columbus Instruments, Columbus, Ohio).\nDuring testing, each rat was gently restrained by grasping it around its rib cage and then allowed to grasp the wire mesh frame attached to the strain gauge. The experimenter then moved the animal in a rostral-to-caudal direction until the grip was broken. Each rat was sequentially tested twice at an approximately 2-3 minute interval to obtain a raw mean grip force (CFmax). This raw mean grip force data was in turn converted to a maximum hindlimb cumulative compressive force (CFmax), as the grams of force/kg of body weight, for each animal.\nFor evaluating the compound effects, the hind limb grip force was conducted 20 days following the intra-articular injection of MIA. A group of age-matched naïve (not injected with MIA) animals was added as a comparator to the drug-dosed groups. The vehicle control response for each group of MIA-treated animals was defined as the 0% response (0% effect), whereas the naïve control group was defined as the normal response and as 100% effect. The % effect for each dose group was expressed as % return of response to normalcy, compared to the naïve group. A percent maximal possible effect (% MPE) of testing compound was calculated according to the formula: (Treatment CFmax−Vehicle CFmax)/Vehicle CFmax]×100). Higher % effect numbers indicate increased relief from the pain in the model, with 100% indicating a return to the level of response seen in normal (non-osteoarthritic) animals. All experiments evaluating drug effects in this model were conducted in a randomized blinded fashion.\nThe animals were housed in Association for Assessment and Accreditation of Laboratory Animal Care (AAALAC) approved facilities at AbbVie Inc. in a temperature-regulated environment under a controlled 12-hour light-dark cycle, with lights on at 6:00 a.m. Food and water were available ad libitum at all times except during testing. All testing was done following procedures outlined in protocols approved by AbbVie Inc.'s Institutional Animal Care and Use Committee."}, "[1]": {"settings": "HEK293 cells stably expressing recombinant human Nav1.7, veratridine + scorpion venom depolarization, read-out: FRET-Membrane Potential Nav1.7 IC50"}, "[2]": {"settings": "HEK293 cells stably expressing recombinant human Nav1.8, veratridine + scorpion venom depolarization"}}, "note": "Like-named read-outs stand apart in the source and are kept apart here."}
{"compound": "CCN1CCC(N(CC)C(=O)c2ccc3cc(Oc4ccc(C(F)(F)F)cn4)ccc3n2)CC1=O", "note": "(stereo not drawn) [Example 61, N-ethyl-N-(1-ethyl-2-oxopiperidin-4-yl)-6-{[5-(trifluoromethyl)pyridin-2-yl]oxy}quinoline-2-carboxamide]", "values": [{"measurement": "IC50", "setting": "recombinant human Nav1.7; [1]", "value": 556, "unit": "nM"}, {"measurement": "IC50", "setting": "recombinant human Nav1.8; [2]", "value": 1140, "unit": "nM"}, {"measurement": "inhibition in vivo at 10 mg/kg", "setting": "osteoarthritic rats; OA dose 10 mg/kg", "value": 61, "unit": "%"}]}
{"compound": "O=C(c1ccc2cc(Oc3ccc(C(F)(F)F)cn3)ccc2n1)N1CCNCC1C(F)F", "note": "(stereo not drawn) [Example 25, [2-(difluoromethyl)piperazin-1-yl](6-{[5-(trifluoromethyl)pyridin-2-yl]oxy}quinolin-2-yl)methanone]", "values": [{"measurement": "IC50", "setting": "recombinant human Nav1.7; read-out: FRET-Membrane Potential Nav1.7 IC50", "value": 1750, "unit": "nM"}, {"measurement": "IC50", "setting": "recombinant human Nav1.8; [2]", "value": 3830, "unit": "nM"}, {"measurement": "inhibition in vivo at 30 mg/kg", "setting": "osteoarthritic rats", "value": 102, "unit": "%"}]}
{"compound": "O=C(c1ccc2cc(Oc3ccc(C(F)(F)F)cn3)ccc2n1)N1CC(O)C1", "note": "[Example 18, (3-hydroxyazetidin-1-yl)(6-{[5-(trifluoromethyl)pyridin-2-yl]oxy}quinolin-2-yl)methanone]", "values": [{"measurement": "IC50", "setting": "recombinant human Nav1.7; [1]", "value": 2200, "unit": "nM"}, {"measurement": "IC50", "setting": "recombinant human Nav1.8", "value": 5340, "unit": "nM"}, {"measurement": "inhibition in vivo at 10 mg/kg", "setting": "osteoarthritic rats; OA dose 10 mg/kg", "value": 23, "unit": "%"}]}
{"compound": "O=C(c1ccc2cc(Oc3ccc(OC(F)(F)F)cn3)ccc2n1)N1CC[C@@H](F)C1", "note": "[Example 301, [(3R)-3-fluoropyrrolidin-1-yl](6-{[5-(trifluoromethoxy)pyridin-2-yl]oxy}quinolin-2-yl)methanone]", "values": [{"measurement": "IC50", "setting": "recombinant human Nav1.7; [1]", "value": 3120, "unit": "nM"}, {"measurement": "IC50", "setting": "recombinant human Nav1.8; [2]", "value": 1400, "unit": "nM"}, {"measurement": "inhibition in vivo at 30 mg/kg", "setting": "osteoarthritic rats", "value": 58, "unit": "%"}]}
{"compound": "COC[C@H]1CN(C(=O)c2ccc3cc(Oc4ccc(C(F)(F)F)nc4)ccc3n2)CCN1", "note": "[Example 63, [(3R)-3-(methoxymethyl)piperazin-1-yl](6-{[6-(trifluoromethyl)pyridin-3-yl]oxy}quinolin-2-yl)methanone]", "values": [{"measurement": "IC50", "setting": "recombinant human Nav1.7; [1]", "value": 976, "unit": "nM"}, {"measurement": "IC50", "setting": "recombinant human Nav1.8", "value": 1160, "unit": "nM"}, {"measurement": "inhibition in vivo at 10 mg/kg", "setting": "osteoarthritic rats; OA dose 10 mg/kg", "value": 15, "unit": "%"}]}
{"compound": "COCCNC(=O)c1ccc2cc(Oc3ccc(C(F)(F)F)nc3)ccc2n1", "note": "[Example 56, N-(2-methoxyethyl)-6-{[6-(trifluoromethyl)pyridin-3-yl]oxy}quinoline-2-carboxamide]", "values": [{"measurement": "IC50", "setting": "recombinant human Nav1.7; [1]", "value": 3010, "unit": "nM"}, {"measurement": "IC50", "setting": "recombinant human Nav1.8; [2]", "value": 1490, "unit": "nM"}, {"measurement": "inhibition in vivo at 10 mg/kg", "setting": "osteoarthritic rats; OA dose 10 mg/kg", "value": 43, "unit": "%"}]}
{"compound": "O=C(c1ccc2cc(Oc3ccc(C(F)(F)F)cn3)ccc2n1)N1CCN(CCO)CC1", "note": "[Example 28, [4-(2-hydroxyethyl)piperazin-1-yl](6-{[5-(trifluoromethyl)pyridin-2-yl]oxy}quinolin-2-yl)methanone]", "values": [{"measurement": "IC50", "setting": "recombinant human Nav1.7; [1]", "value": 3060, "unit": "nM"}, {"measurement": "IC50", "setting": "recombinant human Nav1.8; [2]", "value": 4220, "unit": "nM"}, {"measurement": "inhibition in vivo at 10 mg/kg", "setting": "osteoarthritic rats; OA dose 10 mg/kg", "value": 16, "unit": "%"}]}
{"compound": "O=C(c1ccc2cc(Oc3ccc(C(F)(F)F)cn3)ccc2n1)N1CCNCC1C(F)F", "note": "(single isomer, unassigned) [Example 72, [(2S*)-2-(difluoromethyl)piperazin-1-yl](6-{[5-(trifluoromethyl)pyridin-2-yl]oxy}quinolin-2-yl)methanone]", "values": [{"measurement": "IC50", "setting": "recombinant human Nav1.7; FRET-Membrane Potential Nav1.7 IC50", "value": 2730, "unit": "nM"}, {"measurement": "IC50", "setting": "recombinant human Nav1.8; [2]", "value": 3840, "unit": "nM"}, {"measurement": "inhibition in vivo at 30 mg/kg", "setting": "osteoarthritic rats", "value": 11, "unit": "%"}]}
{"compound": "O=C1C[C@@H](NC(=O)c2ccc3cc(Oc4ccc(C(F)(F)F)cn4)ccc3n2)CN1", "note": "[Example 58, N-[(3R)-5-oxopyrrolidin-3-yl]-6-{[5-(trifluoromethyl)pyridin-2-yl]oxy}quinoline-2-carboxamide]", "values": [{"measurement": "IC50", "setting": "recombinant human Nav1.7; [1]", "value": 1030, "unit": "nM"}, {"measurement": "IC50", "setting": "recombinant human Nav1.8; [2]", "value": 2840, "unit": "nM"}, {"measurement": "inhibition in vivo at 30 mg/kg", "setting": "osteoarthritic rats", "value": 64, "unit": "%"}]}
{"compound": "N[C@@H]1[C@H]2CN(C(=O)c3ccc4cc(Oc5ccc(C(F)(F)F)cn5)ccc4n3)C[C@@H]12", "note": "[Example 36, meso-[(1R,5S,6s)-6-amino-3-azabicyclo[3.1.0]hex-3-yl](6-{[5-(trifluoromethyl)pyridin-2-yl]oxy}quinolin-2-yl)methanone]", "values": [{"measurement": "IC50", "setting": "recombinant human Nav1.7; [1]", "value": 727, "unit": "nM"}, {"measurement": "IC50", "setting": "recombinant human Nav1.8; [2]", "value": 1420, "unit": "nM"}, {"measurement": "OA MPE", "setting": "osteoarthritic rats; OA dose 10 mg/kg", "value": 55, "unit": "%"}]}
{"compound": "O=C(c1ccc2cc(Oc3ccc(C(F)(F)F)cn3)ccc2n1)N1CC(OCC(F)F)C1", "note": "[Example 619, [3-(2,2-difluoroethoxy)azetidin-1-yl](6-{[5-(trifluoromethyl)pyridin-2-yl]oxy}quinolin-2-yl)methanone]", "values": [{"measurement": "IC50", "setting": "recombinant human Nav1.7; [1]", "value": 2880, "unit": "nM"}, {"measurement": "IC50", "setting": "recombinant human Nav1.8; [2]", "value": 2910, "unit": "nM"}, {"measurement": "inhibition in vivo at 30 mg/kg", "setting": "osteoarthritic rats", "value": 53, "unit": "%"}]}
{"compound": "CC1(NC(=O)c2ccc3cc(Oc4ccc(C(F)(F)F)cn4)ccc3n2)COC1", "note": "[Example 48, N-(3-methyloxetan-3-yl)-6-{[5-(trifluoromethyl)pyridin-2-yl]oxy}quinoline-2-carboxamide]", "values": [{"measurement": "IC50", "setting": "recombinant human Nav1.7; [1]", "value": 4430, "unit": "nM"}, {"measurement": "IC50", "setting": "recombinant human Nav1.8; [2]", "value": 774, "unit": "nM"}, {"measurement": "inhibition in vivo at 10 mg/kg", "setting": "osteoarthritic rats; OA dose 10 mg/kg", "value": 41, "unit": "%"}]}
